Assay results taken from PMC12663734, “Sulfonamine-containing aurone derivatives act as inhibitors of intercellular movement of potato virus Y” (iScience, 2025).
Values after ≈ are worked out from the molar mass of the structure shown.

Columns and labels:
[1] = tested on: PVY; experiment: Anti-PVY curative activity, half-leaf method; details: Potato virus Y, in Chenopodium amaranticolor, 120 h, read-out: Curative effect (%)
Description: (§1) Owing to its non-host resistance to PVY, Chenopodium amaranticolor develops a hypersensitive response (HR) within 48–72 hours post-inoculation, producing sharply delimited chlorotic or necrotic local lesions on the inoculated leaves. The number of lesions correlates linearly and positively with virus titre, thereby serving as a quantitative indicator of viral virulence and of the inactivating efficacy of test compounds. The PVY viral extract was rubbed onto the surface of Nicotiana tabacum K326 leaves. After the characteristic symptoms of leaf wrinkling and inward curling appeared, the leaves were harvested and stored at -80°C, then purified according to previously reported methods.[50]^,[51]^,[52] Host leaves were ground to a fine powder in liquid nitrogen, followed by homogenization on ice in 0.5 M phosphate buffer. An equal volume of chloroform:n-butanol (1:1, v/v) corresponding to 10% of the total buffer volume was added, and the mixture was further homogenized on ice. After centrifugation at 10,000g for 20 minutes (4°C), the supernatant was collected as the crude PVY extract. Using 4–5-leaf-stage Chenopodium amaranticolor maintained under optimal growth conditions, a bioassay was conducted with two plants per treatment to systematically evaluate the curative, protective, and inactivating efficacy of the target compound against PVY.[53] […] Each compound was evaluated in three replicates, and the average value was calculated.
Chenopodium amaranticolor was selected as the dead spot host. Excess leaves were first trimmed off, and a uniform layer of carborundum was applied to the leaf surface. The leaves were then inoculated by rubbing with a 1200-fold diluted virus solution. After more than an hour, the carborundum on the leaf surface was washed off with running water, and a 500 μg/mL drug solution was prepared. […] The treated plants were cultivated in a greenhouse for observation, and the number of dead spots on the leaves was counted after approximately 5 days.

[2] = tested on: PVY; experiment: Anti-PVY protective activity, half-leaf method; details: Potato virus Y, in Chenopodium amaranticolor, 120 h, read-out: Protective effect (%)
Description: as §1
In contrast to the antiviral therapeutic activity, the leaves were first treated with the drug solution. A 500 μg/mL drug solution was applied to the right side of the leaves, with the left side serving as a control and treated with a 1% Tween 80 solution. After the leaves had dried under natural conditions, they were placed in a greenhouse for 24 hours before inoculation by rubbing with carborundum, following the same procedures as those for curative activity. After treatment, the plants were maintained in a greenhouse, and the number of local lesions on the inoculated leaves was recorded approximately 5 days.

[3] = tested on: PVY; experiment: Anti-PVY inactivating activity, half-leaf method; details: for pest or weed control at 500 µg/mL / EC50: Potato virus Y, in Chenopodium amaranticolor; for pest or weed control at 500 µg/mL: 120 h; for EC50: read-out: Inactivating effect EC50
Description: as §1
Two different dilutions of the virus solution (600-fold and 1200-fold) were prepared, along with a 1000 μg/mL drug solution. The drug solution was mixed with the 600-fold diluted virus solution on ice and incubated for 30 minutes. During the incubation period, the left side of the leaves was treated with a 1200-fold diluted virus solution. After the incubation was completed, the mixed system of drug and virus is inoculated on the right side of the leaf. After waiting for the infection to be completed, the carborundum on the leaf surface was washed off with running water, and the plants were then cultivated in a greenhouse. The number of dead spots on the leaves was counted after approximately 5 days.

[4] = biological target: T1, PVY CP (Potato virus Y, UniProt P18247); experiment: biochemical; type: binding
T1 construct: 6xHis tag (within the N-terminal pET-32a(+) fusion leader; the Trx and S-tag parts are inferred from the vector and the ~50 kDa band) (N, cleaved yes); made in house; host or cells: Escherichia coli BL21 (DE3) pLysS

[5] = biological target: T2, PVY CP^P154A (Potato virus Y, UniProt P18247, P2950A); experiment: MST binding to mutant PVY CP^P154A
T2 construct: 6xHis tag (within the N-terminal pET-32a(+) fusion leader; the Trx and S-tag parts are inferred from the vector and the ~50 kDa band) (N, cleaved yes); made in house; host or cells: Escherichia coli BL21 (DE3) pLysS
T2 sequence (P18247 2797-3063 P2950A): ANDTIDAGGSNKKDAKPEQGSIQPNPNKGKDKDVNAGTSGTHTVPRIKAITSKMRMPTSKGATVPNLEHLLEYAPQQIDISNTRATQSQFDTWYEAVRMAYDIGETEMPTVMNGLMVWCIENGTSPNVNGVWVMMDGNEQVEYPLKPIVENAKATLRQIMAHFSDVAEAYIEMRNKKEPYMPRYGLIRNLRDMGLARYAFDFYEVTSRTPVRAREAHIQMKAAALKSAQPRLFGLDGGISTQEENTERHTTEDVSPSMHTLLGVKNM

[6] = read-out: Inactivating effect (%), 500 μg/mL, host Chenopodium amaranticolor, average of three replicates

T1 sequence (P18247 2797-3063): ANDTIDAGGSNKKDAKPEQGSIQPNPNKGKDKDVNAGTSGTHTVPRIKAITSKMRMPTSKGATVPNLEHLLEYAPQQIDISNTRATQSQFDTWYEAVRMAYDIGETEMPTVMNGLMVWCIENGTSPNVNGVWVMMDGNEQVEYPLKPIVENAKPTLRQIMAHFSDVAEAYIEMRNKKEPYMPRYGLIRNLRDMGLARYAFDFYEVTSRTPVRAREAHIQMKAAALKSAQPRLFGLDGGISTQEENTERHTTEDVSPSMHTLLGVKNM

Row | EC50 [3] | SMILES | pest or weed control at 500 µg/mL [1] | pest or weed control at 500 µg/mL [2] | pest or weed control at 500 µg/mL [3, 6] | Kd [4] | Kd [5] | Inactivating effect (%) ([3]; 500 μg/mL, host Chenopodium amaranticolor, average of three replicates) | pest or weed control at 500 µg/mL ([3]; read-out: Inactivating effect (%))
1 |  | COc1cccc(/C=C2\Oc3cc(OCC(=O)NS(=O)(=O)c4ccccc4)ccc3C2=O)c1OC [D20] | 34.9 ± 4.9% | 31.3 ± 3.8% | 64.7 ± 3.4% |  |  |  | 
2 |  | COc1cccc(/C=C2\Oc3cc(OCC(=O)NS(=O)(=O)c4ccc(F)cc4)ccc3C2=O)c1OC [D27] | 45.1 ± 3.7% | 33.9 ± 2.3% | 60 to 80% |  |  |  | 
3 |  | COc1ccc(/C=C2\Oc3cc(OCC(=O)NS(=O)(=O)c4ccc(C(F)(F)F)cc4)ccc3C2=O)c(OC)c1 [D38] | 36.7 ± 3.5% | 28 ± 4% | 33.3 ± 3.1% |  |  |  | 
4 |  | COc1cccc(/C=C2\Oc3cc(OCC(=O)NS(=O)(=O)c4ccc(Br)cc4)ccc3C2=O)c1 [D16] | 29 ± 1.6% | 36.9 ± 2.4% | 42.9 ± 4.3% |  |  |  | 
5 |  | COc1ccc(/C=C2\Oc3cc(OCC(=O)NS(=O)(=O)c4ccccc4)ccc3C2=O)cc1OC [D23] | 35.3 ± 1.5% | 33.4 ± 3.9% | 45.4 ± 1.1% |  |  |  | 
6 |  | COc1cccc(/C=C2\Oc3cc(OCC(=O)NS(=O)(=O)c4ccc(F)cc4)ccc3C2=O)c1 [D11] | 40.6 ± 2% | 42.7 ± 2.8% | 52.9 ± 2.8% |  |  |  | 
7 |  | COc1ccc(/C=C2\Oc3cc(OCC(=O)NS(=O)(=O)c4ccc(F)cc4)ccc3C2=O)cc1 [D10] | 24.4 ± 1.9% | 33.9 ± 4% | 43.7 ± 5% |  |  |  | 
8 |  | COc1ccc(/C=C2\Oc3cc(OCC(=O)NS(=O)(=O)c4ccc(Br)cc4)ccc3C2=O)cc1OC [D22] | 36.2 ± 1.5% | 28.1 ± 2.3% | 52 ± 3% |  |  |  | 
9 |  | COc1ccccc1/C=C1\Oc2cc(OCC(=O)NS(=O)(=O)c3ccc(Cl)cc3)ccc2C1=O [D3] | 40.1 ± 3.8% | 36.9 ± 2.9% | 60 to 80% |  |  |  | 
10 |  | COc1ccccc1/C=C1\Oc2cc(OCC(=O)NS(=O)(=O)c3ccc(Br)cc3)ccc2C1=O [D15] | 37.1 ± 0.9% | 39.3 ± 2.9% | 53.4 ± 4.2% |  |  |  | 
11 |  | COc1cc(/C=C2\Oc3cc(OCC(=O)NS(=O)(=O)c4ccc(F)cc4)ccc3C2=O)cc(OC)c1 [D28] | 39.9 ± 2.9% | 32.5 ± 4.4% | 56.4 ± 4.7% |  |  |  | 
12 |  | COc1ccccc1/C=C1\Oc2cc(OCC(=O)NS(=O)(=O)c3cccc(C(F)(F)F)c3)ccc2C1=O [D35] | 37.6 ± 1.8% | 39.9 ± 2.8% | 46.6 ± 2% |  |  |  | 
13 |  | COc1ccc(/C=C2\Oc3cc(OCC(=O)NS(=O)(=O)c4ccc(F)cc4)ccc3C2=O)cc1OC [D26] | 32.4 ± 1.7% | 40.2 ± 5% | 55.3 ± 3% |  |  |  | 
14 |  | COc1ccc(/C=C2\Oc3cc(OCC(=O)NS(=O)(=O)c4ccc(F)cc4)ccc3C2=O)c(OC)c1 [D9] | 45.7 ± 3.3% | 35.6 ± 2.5% | 58.1 ± 5.4% |  |  |  | 
15 |  | COc1ccccc1/C=C1\Oc2cc(OCC(=O)NS(=O)(=O)c3ccc(F)cc3)ccc2C1=O [D12] | 34.1 ± 3.5% | 44.5 ± 1.5% | 59.4 ± 3.6% |  |  |  | 
16 |  | COc1ccc(OC)c(/C=C2\Oc3cc(OCC(=O)NS(=O)(=O)c4ccc(F)cc4)ccc3C2=O)c1 [D34] | 39.9 ± 3.7% | 36 ± 1.6% | 46.9 ± 2.4% |  |  |  | 
17 |  | COc1ccc(/C=C2\Oc3cc(OCC(=O)NS(=O)(=O)c4ccc(Cl)cc4)ccc3C2=O)cc1OC [D18] | 25.5 ± 4% | 38.2 ± 3% | 56.8 ± 2.8% |  |  |  | 
18 | 142 ± 15.2 µg/mL (≈ 267 µM) | COc1cccc(/C=C2\Oc3cc(OCC(=O)NS(=O)(=O)c4ccc(Cl)cc4)ccc3C2=O)c1OC [D17] | 46.2 ± 1.4% | 40.7 ± 2.3% | 60 to 80% |  |  |  | 

Row | EC50 [3] | SMILES | pest or weed control at 500 µg/mL [1] | pest or weed control at 500 µg/mL [2] | pest or weed control at 500 µg/mL [3, 6] | Kd [4] | Kd [5] | Inactivating effect (%) ([3]; 500 μg/mL, host Chenopodium amaranticolor, average of three replicates) | pest or weed control at 500 µg/mL ([3]; read-out: Inactivating effect (%))
19 |  | COc1cccc(/C=C2\Oc3cc(OCC(=O)NS(=O)(=O)c4ccc(Cl)cc4)ccc3C2=O)c1 [D5] | 41.7 ± 3.5% | 37.6 ± 4.8% | 60 to 80% |  |  |  | 
20 | 307 ± 13.7 µg/mL (≈ 614 µM) | COc1ccc(/C=C2\Oc3cc(OCC(=O)NS(=O)(=O)c4ccc(Cl)cc4)ccc3C2=O)cc1 [D1] | 38.7 ± 3.7% | 44.8 ± 3.8% | 50 ± 3.5% |  |  |  | 
21 | 147 ± 11 µg/mL (≈ 297 µM) | COc1cc(/C=C2\Oc3cc(OCC(=O)NS(=O)(=O)c4ccccc4)ccc3C2=O)cc(OC)c1 [D24] | 50.1 ± 1.8% | 31 ± 3% | 60 to 80% |  |  |  | 
22 |  | COc1cccc(/C=C2\Oc3cc(OCC(=O)NS(=O)(=O)c4ccccc4)ccc3C2=O)c1 [D6] | 36.5 ± 2.9% | 40.5 ± 0.8% | 58.8 ± 4.5% |  |  |  | 
23 |  | COc1ccccc1/C=C1\Oc2cc(OCC(=O)NS(=O)(=O)c3ccccc3)ccc2C1=O [D4] | 43.1 ± 2.9% | 33.8 ± 1% | 60 to 80% |  |  |  | 
24 |  | COc1cc(OC)c(/C=C2\Oc3cc(OCC(=O)NS(=O)(=O)c4ccc(F)cc4)ccc3C2=O)c(OC)c1 [D29] | 36.7 ± 4% | 37.9 ± 2.7% | 57.1 ± 4.3% |  |  |  | 
25 |  | COc1ccc(/C=C2\Oc3cc(OCC(=O)NS(=O)(=O)c4ccccc4)ccc3C2=O)cc1 [D2] | 41.4 ± 2.9% | 36.9 ± 2.7% | 60 to 80% |  |  |  | 
26 |  | COc1ccc(/C=C2\Oc3cc(OCC(=O)NS(=O)(=O)c4cccc(C(F)(F)F)c4)ccc3C2=O)cc1 [D36] | 36.8 ± 2.2% | 33.9 ± 4.1% | 55.1 ± 2.8% |  |  |  | 
27 |  | COc1cc(OC)c(/C=C2\Oc3cc(OCC(=O)NS(=O)(=O)c4ccccc4)ccc3C2=O)c(OC)c1 [D31] | 42.9 ± 2.4% | 26.3 ± 2.6% | 57.4 ± 4.3% |  |  |  | 
28 |  | COc1ccc(OC)c(/C=C2\Oc3cc(OCC(=O)NS(=O)(=O)c4ccccc4)ccc3C2=O)c1 [D30] | 33.3 ± 1.4% | 34.2 ± 3.3% | 49.4 ± 3.4% |  |  |  | 
29 |  | COc1cc(OC)c(/C=C2\Oc3cc(OCC(=O)NS(=O)(=O)c4ccc(Cl)cc4)ccc3C2=O)c(OC)c1 [D32] | 43.4 ± 2.3% | 33.3 ± 2.6% | 53.8 ± 3% |  |  |  | 
30 |  | COc1ccc(/C=C2\Oc3cc(OCC(=O)NS(=O)(=O)c4ccc(Br)cc4)ccc3C2=O)c(OC)c1 [D14] | 29.8 ± 4.8% | 37.9 ± 4.4% | 49.2 ± 4.2% |  |  |  | 
31 |  | COc1ccc(/C=C2\Oc3cc(OCC(=O)NS(=O)(=O)c4cccc(C(F)(F)F)c4)ccc3C2=O)c(OC)c1 [D37] | 38.2 ± 2.2% | 29.8 ± 2.7% | 43.8 ± 3.2% |  |  |  | 
32 |  | COc1cc(/C=C2\Oc3cc(OCC(=O)NS(=O)(=O)c4ccc(Br)cc4)ccc3C2=O)cc(OC)c1 [D21] | 33 ± 3.9% | 22.7 ± 1.2% | 50.5 ± 1.6% |  |  |  | 
33 |  | COc1ccc(OC)c(/C=C2\Oc3cc(OCC(=O)NS(=O)(=O)c4ccc(Cl)cc4)ccc3C2=O)c1 [D33] | 41.2 ± 2.4% | 39.7 ± 2.7% | 51.1 ± 3.9% |  |  |  | 
34 |  | COc1cccc(/C=C2\Oc3cc(OCC(=O)NS(=O)(=O)c4ccc(Br)cc4)ccc3C2=O)c1OC [D25] | 35.9 ± 3.9% | 41.9 ± 2.6% | 55.4 ± 2% |  |  |  | 
35 |  | COc1cc(/C=C2\Oc3cc(OCC(=O)NS(=O)(=O)c4ccc(Cl)cc4)ccc3C2=O)cc(OC)c1 [D19] | 36.4 ± 5.6% | 35.7 ± 3.8% | 46 ± 3% |  |  |  | 

Row | SMILES | EC50 [3] | pest or weed control at 500 µg/mL [1] | pest or weed control at 500 µg/mL [2] | pest or weed control at 500 µg/mL [3, 6] | Kd [4] | Kd [5] | Inactivating effect (%) ([3]; 500 μg/mL, host Chenopodium amaranticolor, average of three replicates) | pest or weed control at 500 µg/mL ([3]; read-out: Inactivating effect (%))
36 | NC(=O)c1ncn([C@@H]2O[C@H](CO)[C@@H](O)[C@H]2O)n1 [RBV, ribavirin, reference compound] | 213 ± 15.4 µg/mL (≈ 873 µM) | 41.9 ± 2.7% | 44.2 ± 3.1% | 59.3% | 50.5 µM | 210 ± 59.3 µM | 59.3 ± 3.8% | 
37 | CNCC(=O)N[C@@H](CO)C(=O)N[C@H]1[C@H](O)[C@@H](O)[C@H](n2ccc(N)nc2=O)O[C@@H]1C(N)=O [NNM, ningnanmycin, reference compound] | 54.3 ± 2.2 µg/mL (≈ 122 µM) | 49 ± 3.9% | 49.1 ± 1.8% |  |  |  |  | 83.3 ± 1.2%
